The subject of the experiment is CD8F1 mice, subcutaneous mammary adenocarcinoma, T/C%. Briefly: NCI In Vivo Anticancer Drug Screen. Data for tumor model Mammary Adenocarcinoma CD8F1 (subcutaneous) in CD8F1. The following applies: higher = larger tumour. Put shortly: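 Compound-treated versus vehicle-treated mice with transplantable tumors; survival or tumor size compared as T/C.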
Setting [1] is: endpoint: median tumor weight change, dose: 62.5 mg/kg/injection, schedule: Q01DX001 (ip), vehicle: saline with Tween-80.
Where [2] appears, read: endpoint: median tumor weight (est.), dose: 12.5 mg/kg/injection, schedule: Q07DX005 (ip), vehicle: saline with Tween-80.
Setting [3] is: endpoint: median tumor weight (est.), dose: 25.0 mg/kg/injection, schedule: Q07DX005 (ip), vehicle: saline with Tween-80.
Setting [4] is: endpoint: median tumor weight (est.), dose: 50.0 mg/kg/injection, schedule: Q07DX005 (ip), vehicle: saline with Tween-80.

Records with an inconclusive call do not appear.

On to `CC[C@@]1(O)C(=O)OCc2c1cc1n(c2=O)Cc2cc3cc(O)ccc3nc2-1`, for which the T/C is 97 % of control (endpoint: median tumor weight change, dose: 1.85 mg/kg/injection, schedule: Q01DX001 (ip), vehicle: saline); 107 % of control (endpoint: median tumor weight change, dose: 7.5 mg/kg/injection, schedule: Q01DX001 (ip), vehicle: saline); 80 % of control (endpoint: median tumor weight change, dose: 15.0 mg/kg/injection, schedule: Q01DX001 (ip), vehicle: saline); 28 % of control (endpoint: median tumor weight change, dose: 30.0 mg/kg/injection, schedule: Q01DX001 (ip), vehicle: saline).
As to `O=C(O)[C@H](Cc1ccccc1)N1C(=O)c2ccccc2C1=O`, the T/C (endpoint: median tumor weight change, dose: 62.5 mg/kg/injection, schedule: Q01DX001 (ip), vehicle: DMSO) is 75 % of control; the T/C (endpoint: median tumor weight change, dose: 125.0 mg/kg/injection, schedule: Q01DX001 (ip), vehicle: DMSO) is 116 % of control; the T/C (endpoint: median tumor weight change, dose: 250.0 mg/kg/injection, schedule: Q01DX001 (ip), vehicle: DMSO) was 68 % of control; the T/C (endpoint: median tumor weight change, dose: 500.0 mg/kg/injection, schedule: Q01DX001 (ip), vehicle: DMSO) was 59 % of control.
With `C1CN2CN3CCN(CN1C3)C2`, the T/C was 85 % of control (endpoint: mean tumor weight, dose: 12.5 mg/kg/injection, schedule: Q07DX006 (ip), vehicle: saline); 104 % of control (endpoint: mean tumor weight, dose: 25.0 mg/kg/injection, schedule: Q07DX006 (ip), vehicle: saline); 79 % of control (endpoint: mean tumor weight, dose: 50.0 mg/kg/injection, schedule: Q07DX006 (ip), vehicle: saline); 26 % of control (endpoint: mean tumor weight, dose: 100.0 mg/kg/injection, schedule: Q07DX006 (ip), vehicle: saline); 75 % of control (endpoint: median tumor weight (est.), dose: 6.25 mg/kg/injection, schedule: Q07DX005 (ip), vehicle: saline); 107 % of control (endpoint: median tumor weight (est.), dose: 12.5 mg/kg/injection, schedule: Q07DX005 (ip), vehicle: saline). In addition, the T/C (endpoint: median tumor weight (est.), dose: 25.0 mg/kg/injection, schedule: Q07DX005 (ip), vehicle: saline) was 93 % of control; the T/C (endpoint: median tumor weight (est.), dose: 50.0 mg/kg/injection, schedule: Q07DX005 (ip), vehicle: saline) is 82 % of control; the T/C (endpoint: median tumor weight (est.), dose: 100.0 mg/kg/injection, schedule: Q07DX005 (ip), vehicle: saline) was 107 % of control; the T/C (endpoint: median tumor weight (est.), dose: 200.0 mg/kg/injection, schedule: Q07DX005 (ip), vehicle: saline) is 67 % of control.
Regarding `O/N=C/c1ccccc1O.O/N=C/c1ccccc1O.[Cu]`, the T/C (endpoint: median tumor weight change, dose: 31.25 mg/kg/injection, schedule: Q01DX001 (ip), vehicle: saline with Tween-80) was 90 % of control and the T/C under setting [1] was 59 % of control.
On to `CCSC(=O)N1c2ccc(OC)cc2C=CC1C#N` (stereo not given), for which the T/C runs as follows: under setting [2], 93 % of control; under setting [3], 93 % of control; under setting [4], 69 % of control; (endpoint: median tumor weight (est.), dose: 100.0 mg/kg/injection, schedule: Q07DX005 (ip), vehicle: saline with Tween-80) 90 % of control; (endpoint: median tumor weight (est.), dose: 225.0 mg/kg/injection, schedule: Q07DX005 (ip), vehicle: saline with Tween-80) 59 % of control; (endpoint: median tumor weight (est.), dose: 400.0 mg/kg/injection, schedule: Q07DX005 (ip), vehicle: saline with Tween-80) 97 % of control. Moreover, the T/C is 95 % of control (endpoint: median tumor weight (est.), dose: 450.0 mg/kg/injection, schedule: Q07DX005 (ip), vehicle: saline with Tween-80) and 78 % of control (endpoint: median tumor weight (est.), dose: 900.0 mg/kg/injection, schedule: Q07DX005 (ip), vehicle: saline with Tween-80).
As to `CCC[P+](c1ccccc1)(c1ccccc1)c1ccccc1`, the T/C is 211 % of control (endpoint: mean tumor weight, dose: 3.12 mg/kg/injection, schedule: Q07DX006 (ip), vehicle: saline with Tween-80); 241 % of control (endpoint: mean tumor weight, dose: 6.25 mg/kg/injection, schedule: Q07DX006 (ip), vehicle: saline with Tween-80); 40 % of control (endpoint: mean tumor weight, dose: 12.5 mg/kg/injection, schedule: Q07DX006 (ip), vehicle: saline with Tween-80); 72 % of control (endpoint: mean tumor weight, dose: 25.0 mg/kg/injection, schedule: Q07DX006 (ip), vehicle: saline with Tween-80); 38 % of control (endpoint: mean tumor weight, dose: 50.0 mg/kg/injection, schedule: Q07DX006 (ip), vehicle: saline with Tween-80); 83 % of control (endpoint: median tumor weight (est.), dose: 3.12 mg/kg/injection, schedule: Q07DX005 (ip), vehicle: saline with Tween-80). Also, the T/C is, setting by setting: (endpoint: median tumor weight (est.), dose: 6.25 mg/kg/injection, schedule: Q07DX004 (ip), vehicle: saline with Tween-80) 112 % of control; (endpoint: median tumor weight (est.), dose: 6.25 mg/kg/injection, schedule: Q07DX005 (ip), vehicle: saline with Tween-80) 72 % of control; (endpoint: median tumor weight (est.), dose: 12.5 mg/kg/injection, schedule: Q07DX004 (ip), vehicle: saline with Tween-80) 172 % of control; under setting [2], 73 % of control; (endpoint: median tumor weight (est.), dose: 25.0 mg/kg/injection, schedule: Q07DX004 (ip), vehicle: saline with Tween-80) 183 % of control; under setting [3], 34 % of control. Also, the T/C (endpoint: median tumor weight (est.), dose: 50.0 mg/kg/injection, schedule: Q07DX004 (ip), vehicle: saline with Tween-80) is 104 % of control and the T/C under setting [4] was 30 % of control.
Consider `CCCCCC(=O)O[C@]1(C(C)=O)CC[C@H]2[C@@H]3CCC4=CC(=O)CC[C@]4(C)[C@H]3CC[C@@]21C`, for which the T/C is 95 % of control (endpoint: median tumor weight (est.), dose: 12.5 mg/kg/injection, schedule: Q07DX005 (ip), vehicle: Klucel (hydroxypropylcellulose) (HPC)); 90 % of control (endpoint: median tumor weight (est.), dose: 25.0 mg/kg/injection, schedule: Q07DX005 (ip), vehicle: Klucel (hydroxypropylcellulose) (HPC)); 101 % of control (endpoint: median tumor weight (est.), dose: 50.0 mg/kg/injection, schedule: Q07DX005 (ip), vehicle: Klucel (hydroxypropylcellulose) (HPC)); 92 % of control (endpoint: median tumor weight (est.), dose: 100.0 mg/kg/injection, schedule: Q07DX005 (ip), vehicle: Klucel (hydroxypropylcellulose) (HPC)); 49 % of control (endpoint: median tumor weight (est.), dose: 200.0 mg/kg/injection, schedule: Q07DX005 (ip), vehicle: Klucel (hydroxypropylcellulose) (HPC)); 77 % of control (endpoint: median tumor weight (est.), dose: 400.0 mg/kg/injection, schedule: Q07DX005 (ip), vehicle: Klucel (hydroxypropylcellulose) (HPC)).
Consider `Nc1cc2c3c(cccc3c1)C(=O)N(CCN1CCCC1)C2=O`, for which, for the setting “endpoint: median tumor weight change, dose: 15.63 mg/kg/injection, schedule: Q01DX001 (ip), vehicle: saline with Tween-80”, the T/C is 114 % of control.
On to `COC(C(=O)C(O)C(C)O)C1CC2C=C3C=C(OC4CC(OC5CC(O)C(OC)C(C)O5)C(OC(C)=O)C(C)O4)C(C)C(=O)C3=C(O)C2=C(O)C1OC1CC(OC2CC(OC3CC(C)(O)C(O)C(C)O3)C(O)C(C)O2)C(O)C(C)O1` (stereo not given), for which the T/C (endpoint: mean tumor weight, dose: 1.0 mg/kg/injection, schedule: Q07DX005 (ip), vehicle: saline) is 73 % of control; the T/C (endpoint: mean tumor weight, dose: 2.0 mg/kg/injection, schedule: Q07DX005 (ip), vehicle: saline) is 64 % of control; the T/C (endpoint: median tumor weight (est.), dose: 0.5 mg/kg/injection, schedule: Q07DX005 (ip), vehicle: saline with Tween-80) is 58 % of control; the T/C (endpoint: median tumor weight (est.), dose: 1.0 mg/kg/injection, schedule: Q07DX005 (ip), vehicle: saline with Tween-80) was 78 % of control; the T/C (endpoint: median tumor weight (est.), dose: 2.0 mg/kg/injection, schedule: Q07DX005 (ip), vehicle: saline with Tween-80) was 89 % of control.
Regarding `O=[N+]([O-])c1ccc(Sc2ccncn2)c([N+](=O)[O-])c1`, the T/C runs as follows: under setting [1], 108 % of control; (endpoint: median tumor weight change, dose: 125.0 mg/kg/injection, schedule: Q01DX001 (ip), vehicle: saline with Tween-80) 62 % of control.
For the compound `O=C(O)c1ccc(C(=O)O)c(C(=O)O)c1.[NH-]C1CCCCC1[NH-].[Pt+2]`, the T/C by setting is: (endpoint: median tumor weight (est.), dose: 1.56 mg/kg/injection, schedule: Q07DX005 (ip), vehicle: sodium bicarbonate) 38 % of control; (endpoint: median tumor weight (est.), dose: 3.12 mg/kg/injection, schedule: Q07DX005 (ip), vehicle: sodium bicarbonate) 24 % of control; (endpoint: median tumor weight (est.), dose: 6.25 mg/kg/injection, schedule: Q07DX005 (ip), vehicle: sodium bicarbonate) 11 % of control; (endpoint: median tumor weight (est.), dose: 12.5 mg/kg/injection, schedule: Q07DX005 (ip), vehicle: sodium bicarbonate) 11 % of control; (endpoint: median tumor weight (est.), dose: 25.0 mg/kg/injection, schedule: Q07DX005 (ip), vehicle: sodium bicarbonate) 32 % of control.
Turning to `C=C(C(=O)O)C(N)C(=O)O` (stereo not given), the T/C is 96 % of control (endpoint: median tumor weight change, dose: 62.5 mg/kg/injection, schedule: Q01DX001 (ip), vehicle: saline); 100 % of control (endpoint: median tumor weight change, dose: 125.0 mg/kg/injection, schedule: Q01DX001 (ip), vehicle: saline); 61 % of control (endpoint: median tumor weight change, dose: 250.0 mg/kg/injection, schedule: Q01DX001 (ip), vehicle: saline); 71 % of control (endpoint: median tumor weight change, dose: 500.0 mg/kg/injection, schedule: Q01DX001 (ip), vehicle: saline).

The record behind these values is PubChem BioAssay AID220 (DTP/NCI, 2004).
